# Source: patent publication US20100184677A1, “USE OF THE HUMAN PANCREATIC POLYPEPTIDE AS A THERAPEUTIC AGENT” (priority 2007, published 2010)
# Legend:
# MRC-5 cells = conditions: human, 6 days
# HepG2-2.2.15 cells = assay: Cell viability (dye uptake assay) in HepG2-2.2.15 cells; conditions: HepG2-2.2.15 cells; test peptide 10 micrograms per ml; dye uptake assay (% cell control)
# Pseudomonas aeruginosa = format: cell-based; conditions: 5 micrograms per ml
# Streptococcus pneumoniae = format: cell-based; conditions: 5 micrograms per ml
# MRSA = conditions: 5 micrograms per ml
# [1] = Cell viability (dye uptake assay) in HepG2-2.2.15 cells; conditions: human
# in vitro [2] = conditions: human
# in vitro [3] = conditions: human, MRC-5 cells (embryonal lung fibroblasts)
compound,measurement,setting,value
Nc1nc(O)c2ncn(COC(CO)CO)c2n1 [Ganciclovir],% Cell Viability,MRC-5 cells,100%
"Nc1ccn([C@@H]2CS[C@H](CO)O2)c(=O)n1 [3TC, Lamivudine, reference compound]",% Cell Viability,HepG2-2.2.15 cells,95.8%
CC[C@H](C)[C@H](NC(=O)[C@H](Cc1ccc(O)cc1)NC(=O)[C@H](CCCNC(=N)N)NC(=O)[C@H](CCCNC(=N)N)NC(=O)[C@H](CC(C)C)NC(=O)[C@H](CC(=O)O)NC(=O)[C@H](C)NC(=O)[C@H](C)NC(=O)[C@H](Cc1ccc(O)cc1)NC(=O)[C@H](CCC(N)=O)NC(=O)[C@H](C)NC(=O)[C@H](CCSC)NC(=O)[C@H](CCC(N)=O)NC(=O)[C@H](CCC(=O)O)NC(=O)[C@@H]1CCCN1C(=O)[C@@H](NC(=O)[C@H](C)NC(=O)[C@H](CC(N)=O)NC(=O)[C@H](CC(=O)O)NC(=O)CNC(=O)[C@@H]1CCCN1C(=O)[C@H](Cc1ccc(O)cc1)NC(=O)[C@@H](NC(=O)[C@@H]1CCCN1C(=O)[C@H](CCC(=O)O)NC(=O)[C@H](CC(C)C)NC(=O)[C@@H]1CCCN1C(=O)[C@H](C)N)C(C)C)[C@@H](C)O)C(=O)N[C@@H](CC(N)=O)C(=O)N[C@@H](CCSC)C(=O)N[C@@H](CC(C)C)C(=O)N[C@H](C(=O)N[C@@H](CCCNC(=N)N)C(=O)N1CCC[C@H]1C(=O)N[C@@H](CCCNC(=N)N)C(=O)N[C@@H](Cc1ccc(O)cc1)C(N)=O)[C@@H](C)O [Pancreatic polypeptide],% inhibition,Pseudomonas aeruginosa,0.0%
same,% inhibition,Streptococcus pneumoniae,0.0%
same,% inhibition,MRSA,0.0%
same,"viability at 144 h, 10 micrograms per ml",[1],92.5%
same,viability at 10 micrograms per ml,in vitro [2],90.2%
same,viability at 144 h,in vitro [3],100%
